# Assay results: patent US20190233884A1 (University of Southern California, priority 2016, published 2019)
# System: patients with refractory metastatic colorectal cancer (mCRC)
# Assay: PFS, OS and disease control in the testing (validation) cohort of refractory mCRC patients receiving TAS-102 (n=129, Italy), by baseline characteristics, SNP genotype and toxicity
# Format: in vivo, human
# Protocol: All patients underwent the treatment in salvage-line setting. […]
# (§1) Genomic DNA was extracted from peripheral whole blood in patients of all cohorts using the QIAmp Kit (Qiagen, Valencia, Calif., USA) according to the manufacturer's protocol (www.qiagen.com). The candidate SNPs were genotyped using PCR-based direct DNA sequence analysis by ABI 3100A Capillary Genetic Analyzer and Sequencing Scanner v1.0 (Applied Biosystems). Amplification of extracted DNA was carried out using both forward and reverse primers for each gene polymorphism as shown in Table 1. […] The investigators analyzing SNPs were blinded to the clinical data of the study patients.
# The primary endpoint in this study was progression-free survival (PFS), and the secondary endpoints were overall survival (OS) and disease control rate (DCR). PFS was calculated from the date of starting treatment to the first observation of disease progression or death from any cause. If a patient had no disease progression or death, PFS was censored at the date of last follow up. OS was calculated from the date of starting treatment until the date of death from any cause or the date of the last follow-up, at which point OS was censored. The disease control rate (DCR) was defined as the proportion of patients who achieved a stable disease (SD) or […] according to RECISTv1.1. Chi-square test was used to examine the difference in baseline patient characteristics among the three cohorts. Allelic distribution of all SNPs by ethnicity for deviation from Hardy-Weinberg equilibrium and the allelic frequencies of SNPs were tested using the Chi-square tests with one degree of freedom. The associations between candidate SNPs and disease control, and toxicities were examined using contingency tables and Fisher's exact test. The associations of SNPs with PFS and OS were analysed using Kaplan-Meier curves and the log-rank test. Because the true mode of inheritance of candidate SNPs was not established yet, a codominant or dominant genetic model if appropriate was considered.
# All patients underwent the treatment in salvage-line setting. […] In all patients, adverse events were graded according to the Common Terminology Criteria for Adverse Events, version 4.0. […]
# as §1, with “tested” for “genotyped”, “Biosystems).” for “Biosystems). Amplification of extracted DNA was carried out using both forward and reverse primers for each gene polymorphism as shown in Table 1.”, “data.” for “data of the study patients.”
# The primary endpoint in this study was progression-free survival (PFS), and the secondary endpoints were overall survival (OS) and disease control rate (DCR).
# [1] = validation cohort, Performance status ECOG 1+ vs ECOG 0 (Ref.), univariate
# [2] = validation cohort, Peritoneal No
# [3] = validation cohort, Peritoneal No vs Yes (Ref.), univariate
# [4] = validation cohort, Peritoneal Yes
# [5] = validation cohort, Pre-chemo numbers <4
# [6] = validation cohort, Pre-chemo numbers ≥4
# [7] = validation cohort, Pre-chemo numbers ≥4 vs <4 (Ref.), univariate
# [8] = validation cohort, Previous anti-EGFR No
# [9] = validation cohort, Previous anti-EGFR No vs Yes (Ref.), univariate
# [10] = validation cohort, Previous anti-EGFR Yes
# [11] = validation cohort, Previous anti-VEGF No
# [12] = validation cohort, Previous anti-VEGF No vs Yes (Ref.), univariate
# [13] = validation cohort, Previous anti-VEGF Yes
# [14] = validation cohort, Primary tumor resection No
# [15] = validation cohort, Primary tumor resection No vs Yes (Ref.), univariate
# [16] = validation cohort, Primary tumor resection Yes
# [17] = validation cohort, Prior REGORA No
# [18] = validation cohort, Prior REGORA No vs Yes (Ref.), univariate
# [19] = validation cohort, Prior REGORA Yes
# [20] = validation cohort, RAS status Mutant
# [21] = validation cohort, RAS status Mutant vs Wild type (Ref.), univariate
# [22] = validation cohort, RAS status Wild type
# [23] = validation cohort, Sex Female vs Male (Ref.), univariate
# [24] = validation cohort, Time to metastasis Metachronous
# [25] = validation cohort, Time to metastasis Metachronous vs Synchronous (Ref.), univariate
# [26] = validation cohort, Time to metastasis Synchronous
# [27] = validation cohort, Tumor site Left
# [28] = validation cohort, Tumor site Left vs Right (Ref.), univariate
# [29] = validation cohort, Tumor site Right
# [30] = validation cohort, XRCC3 rs861539 A/A
# [31] = validation cohort, XRCC3 rs861539 A/A vs Any G (Ref.), multivariable
# [32] = validation cohort, XRCC3 rs861539 A/A vs Any G (Ref.), univariate
# [33] = validation cohort, XRCC3 rs861539 A/A vs G/G (Ref.), multivariable
# [34] = validation cohort, XRCC3 rs861539 A/A vs G/G (Ref.), univariate
# [35] = validation cohort, XRCC3 rs861539 Any A
# [36] = validation cohort, XRCC3 rs861539 Any A vs G/G (Ref.), multivariable
# [37] = validation cohort, XRCC3 rs861539 Any A vs G/G (Ref.), univariate
# [38] = validation cohort, XRCC3 rs861539 Any G
# [39] = validation cohort, XRCC3 rs861539 G/A
# [40] = validation cohort, XRCC3 rs861539 G/A vs G/G (Ref.), multivariable
# [41] = validation cohort, XRCC3 rs861539 G/A vs G/G (Ref.), univariate
# [42] = validation cohort, XRCC3 rs861539 G/G
# [43] = validation cohort, ATM rs609429 any G allele
# [44] = validation cohort, ATM rs609429 any G vs C/C, univariate
# [45] = whole testing (validation) cohort
substance,measurement,setting,value
Trifluridine/tipiracil [TAS-102],HR OS,[1],2.15
same,HR PFS,[1],1.43
same,Median OS,[2],9.0 months
same,Median PFS,[2],2.0 months
same,HR OS,[3],0.80
same,HR PFS,[3],0.74
same,Median OS,[4],5.3 months
same,Median PFS,[4],1.9 months
same,Median OS,[5],5.1 months
same,Median PFS,[5],1.9 months
same,Median OS,[6],8.7+ months
same,Median PFS,[6],2.1 months
same,HR OS,[7],0.57
same,HR PFS,[7],0.66
same,Median OS,[8],4.4 months
same,Median PFS,[8],1.9 months
same,HR OS,[9],2.63
same,HR PFS,[9],1.53
same,Median OS,[10],8.8+ months
same,Median PFS,[10],2.1 months
same,Median OS,[11],6.6+ months
same,Median PFS,[11],2.8 months
same,HR OS,[12],0.60
same,HR PFS,[12],0.67
same,Median OS,[13],5.5 months
same,Median PFS,[13],2.0 months
same,Median OS,[14],3.9 months
same,Median PFS,[14],1.8 months
same,HR OS,[15],1.87
same,HR PFS,[15],2.13
same,Median OS,[16],9.0 months
same,Median PFS,[16],2.0 months
same,Median OS,[17],5.4 months
same,Median PFS,[17],2.0 months
same,HR OS,[18],1.36
same,HR PFS,[18],1.20
same,Median OS,[19],8.7+ months
same,Median PFS,[19],2.0 months
same,Median OS,[20],5.1 months
same,Median PFS,[20],1.9 months
same,HR OS,[21],1.48
same,HR PFS,[21],1.21
same,Median OS,[22],8.8+ months
same,Median PFS,[22],2.0 months
same,Median OS,"validation cohort, Sex Female",5.3 months
same,Median PFS,"validation cohort, Sex Female",2.1 months
same,HR OS,[23],1.22
same,HR PFS,[23],0.98
same,Median OS,"validation cohort, Sex Male",9.0 months
same,Median PFS,"validation cohort, Sex Male",1.9 months
same,Median OS,[24],8.5+ months
same,Median PFS,[24],2.0 months
same,HR OS,[25],0.59
same,HR PFS,[25],0.75
same,Median OS,[26],5.2 months
same,Median PFS,[26],1.9 months
same,Median OS,[27],9.0 months
same,Median PFS,[27],2.0 months
same,HR OS,[28],0.78
same,HR PFS,[28],1.07
same,Median OS,[29],5.1 months
same,Median PFS,[29],1.9 months
same,"Disease Control CR/PR/SD, patients n (%)",[30],3 (12%)
same,Median OS (95% CI),[30],"4.2 (3.6, 8.8+) months"
same,Median PFS (95% CI),[30],"1.9 (1.8, 2.0) months"
same,"PD, patients n (%)",[30],22 (88%)
same,HR OS (95% CI),[31],"1.05 (0.56, 1.97)"
same,HR PFS (95% CI),[31],"1.30 (0.81, 2.09)"
same,HR OS (95% CI),[32],"1.29 (0.70, 2.39)"
same,HR PFS (95% CI),[32],"1.37 (0.86, 2.18)"
same,HR OS (95% CI),[33],"0.93 (0.46, 1.88)"
same,HR PFS (95% CI),[33],"1.26 (0.74, 2.14)"
same,HR OS (95% CI),[34],"1.13 (0.57, 2.22)"
same,HR PFS (95% CI),[34],"1.34 (0.80, 2.25)"
same,"Disease Control CR/PR/SD, patients n (%)",[35],19 (26%)
same,Median OS (95% CI),[35],"5.8 (4.1, 9.0+) months"
same,Median PFS (95% CI),[35],"2.0 (1.9, 2.1) months"
same,"PD, patients n (%)",[35],55 (74%)
same,HR OS (95% CI),[36],"0.84 (0.47, 1.49)"
same,HR PFS (95% CI),[36],"1.05 (0.69, 1.60)"
same,HR OS (95% CI),[37],"0.88 (0.51, 1.54)"
same,HR PFS (95% CI),[37],"1.07 (0.72, 1.61)"
same,"Disease Control CR/PR/SD, patients n (%)",[38],32 (32%)
same,Median OS (95% CI),[38],"5.8 (4.7, 9.0+) months"
same,Median PFS (95% CI),[38],"2.0 (1.9, 2.3) months"
same,"PD, patients n (%)",[38],67 (68%)
same,"Disease Control CR/PR/SD, patients n (%)",[39],16 (33%)
same,Median OS (95% CI),[39],"9.0 (4.6, 9.0+) months"
same,Median PFS (95% CI),[39],"2.0 (1.9, 2.3) months"
same,OS,[39],9.0 months
same,"PD, patients n (%)",[39],33 (67%)
same,HR OS (95% CI),[40],"0.79 (0.41, 1.51)"
same,HR PFS (95% CI),[40],"0.95 (0.59, 1.51)"
same,HR OS (95% CI),[41],"0.75 (0.40, 1.43)"
same,HR PFS (95% CI),[41],"0.96 (0.62, 1.50)"
same,"Disease Control CR/PR/SD, patients n (%)",[42],16 (32%)
same,Median OS (95% CI),[42],"5.5 (3.6, 8.7+) months"
same,Median PFS (95% CI),[42],"2.1 (1.7, 2.5) months"
same,"PD, patients n (%)",[42],34 (68%)
same,OS,[43],not reached
same,PFS,[43],2.0 months
same,HR for OS,[44],0.73
same,HR for PFS,[44],0.78
same,OS,"validation cohort, XRCC3 rs861539 C/C variant (so in the source)",5.5 months
same,HR for OS,"validation cohort, XRCC3 rs861539 G/A vs C/C (so in the source)",0.75
same,Median OS,[45],5.7 months
same,Median PFS,[45],2.0 months
